Source: patent US20100258138A1, “RADIOLABELED 1-ACETATE PET IMAGING FOR RA[…] HEAD AND NECK CANCER” (priority 2006, published 2010)
Values joined by “and” are separate entries in the source; they are usually repeats but may differ in a detail not shown here. Equal values may be shown once.

Experiments:
[1] = system: lymph node metastases of head and neck squamous cell carcinoma; test: ACE-PET imaging of metastases; assay type: in vivo, human
Method: (§1) None of the patients suffered from diabetes. […] All patients participating in the study provided informed consent.
(§2) Six patients were studied with dedicated PET and four patients were investigated with PET/CT. A 32 minutes dynamic emission scan was performed immediately after intravenous injection of 10 MBq/kg body weight ACE. The scan time was 12×5s, 6×10s, 4×30s, 4×60s, 2×120s and 4×300s. Frame 30 (17-22 minutes after injection) generally provided the best image quality with highest tumor to background ratio and was therefore chosen for subsequent data analysis.
(§3) Isoactivity pixel value=(MPVtumor+APVbackground)×50%

salivary glands = test: ACE-PET physiological uptake in normal tissue; set-up: species or system human; details: in vivo
Method: as §2

[2] = system: primary tumors of head and neck squamous cell carcinoma; test: ACE-PET imaging of primary tumors; assay type: in vivo, human
Method: as §1, §2, §3

[3] = system: lymph node metastases of head and neck squamous cell carcinoma; details: 21 metastatic lesions
Method: (§4) Ten consecutive patients (median age 56, range 18-77 years), where of eight males and two females with histologically confirmed squamous cell carcinoma of the head and neck, were included in the study. None of the patients suffered from diabetes. […] Conventional staging of the tumors was performed by CT (n=9), MRI (n=1), histopathology and clinical examination. Histological confirmation was obtained by guided biopsies in all the primary tumors and most metastatic sites. […] All patients participating in the study provided informed consent. The study was accepted by the ethical committee of the participating hospital.
(§5) In all patients, both FDG-PET and ACE-PET were performed before the radiotherapy treatment. ACE and FDG-PET scans were performed on the same or consecutive day, except for one patient where the two types of PET scanning were done five days apart. PET studies were carried out with a dedicated PET scanner (Siemens ECAT HR^+, Knoxville, Tenn., USA) or with a PET/CT (GE Discovery S T, Milwaukee, Wis., USA). All patients were normoglycemic and were fasted at least 6 hours before tracer injection.
(§6) Whole-body scanning was performed one hour after intravenous injection of 5 MBq/kg body weight FDG. Six patients were examined by PET/CT and four patients were studied by PET alone. The patients were instructed to remain recumbent and avoid voicing and other uses of neck muscles during the uptake period.
(§7) PET images were co-registered with the CT or MRI images in all patients by a normalized mutual information procedure supported by manual correction using Hermes Multimodality™ software (Nuclear Diagnostics, Stockholm, Sweden). FDG-PET and ACE-PET images were analyzed both qualitatively and quantitatively, using Hermes Volume Display™ version V2β. In qualitative analysis, PET images were interpreted visually by two nuclear medicine physicians and any disagreement was resolved by consensus. The tumor uptake of FDG and ACE was graded into negligible, mild, moderate and intensive compared to the contra-lateral or surrounding tissues. An abnormal uptake equal to or exceeding mild was considered positive. In quantitative analysis, the mean standardized uptake value (SUV) and tumor volumes delineated by ACE and FDG-PET were evaluated. SUV was calculated as mean radioactivity concentration in the volumes (Bq/cc) divided by injected dose (Bq) per kilogram body weight. […]
(§8) Each tumor volume in FDG-PET and ACE-PET was delineated automatically by tracing an isoactivity pixel value set to 50% threshold of the maximum radioactivity corrected for background. The background was measured from a separately drawn region of interest (ROI) adjacent but at safe distance from the tumor. The isoactivity pixel value of each volume was calculated as: […]

[4] = system: primary tumors of head and neck squamous cell carcinoma; details: ten patients
Method: as §4, §5, §6, §7, §8

Compound	ACE SUV (mean±SD) ([1]; 21 metastatic lesions)	range of ACE SUV ([1]; 21 metastatic lesions)	ACE-PET SUV ([1]; individual metastasis (one line per lesion), 10 MBq/kg i.v., frame 17-22 min)	ACE-PET Visual ([1]; individual metastasis, visual grading of uptake)	physiological uptake of ACE in salivary glands (salivary glands)	ACE-PET SUV ([2]; primary tumor, individual patient (one line per patient), 10 MBq/kg i.v., frame 17-22 min after injection)	ACE-PET Visual ([2]; primary tumor, individual patient, visual grading of uptake vs contra-lateral or surrounding tissue)	ACE-PET SUV, Mean ± SD ([2]; primary tumors, ten patients)	range of ACE SUV ([2]; primary tumors, ten patients)	FDG SUV (mean±SD) [3]	range of FDG SUV [3]	FDG-PET SUV, Mean ± SD [4]	range of FDG SUV [4]
C[11C](=O)O [ACE, ^11C-acetate]	4.0±1.3	2.4-6.2	3.5 and 5.9 and 4.7 and 5.1 and 3.1 and 2.9 and 4.5 and 3.9 and 4.6 and 5.8 and 3.0 and 2.8 and 2.6 and 3.7 and 6.2 and 2.4 and 2.7	+++ (6×) and ++ (9×) and − and + (5×)	normally high physiological uptake	3.7 and 3.8 and 2.7 and 5.7 and 10.6 and 4.9 and 3.9 and 9.2 and 2.5 and 6.0	+ (2×) and +++ (4×) and ++ (4×)	5.3±2.7	2.5-10.6				
OC[C@H]1OC(O)[C@H]([18F])[C@@H](O)[C@@H]1O (stereo partly drawn) [FDG, ^18F-fluoro-2-deoxy-D-glucose]										4.47±3.3	0.9-10.0	9.6±7.0	1.9-24.5
